# Reference: PubChem BioAssay AID1959 (Broad Institute, 2009)
# Calls of active or inactive are those of the source.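 Rule for the calls: active = growth-inhibition EC50 no more than tenfold above the top tested dose; inconclusive = flat fit between 30% and 70% inhibition, or unreliable fit; inactive = EC50 more than tenfold above the top tested dose.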
# System: E. coli NEB5alpha growth, BacTiter-Glo luminescence, 4 h
# Experiment: Escherichia coli growth inhibition, dose response, counter-screen for MEX-5/POS-1 RNA-binding inhibitor project, luminescence, NEB5alpha (AID 1959);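 note: pUC19-transformed ampicillin-resistant cells grown in LB with ampicillin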
row,Structure (SMILES),EC50
1,Cc1ccc(NC(=O)/C(C#N)=C/c2ccc(C)s2)c(C)c1,> 11 µM (inactive)
2,Cc1nn(C)c(C)c1CN(C)C(=O)C1c2ccccc2Oc2ccccc21,> 11 µM (inactive)
3,CCC(=O)Nc1ccc2nc3c(=O)[nH]c(=S)[nH]c3nc2c1,> 11 µM (inactive)
4,C/C(=N\Nc1ccc(Cl)c(C(=O)O)c1)c1ccc[nH]1,> 11 µM (inactive)
5,Cc1c(NC(=O)c2coc(=O)c(Br)c2)c(=O)n(-c2ccccc2)n1C,> 11 µM (inactive)
6,O=C(COC(=O)CCc1c[nH]c(=O)[nH]1)Nc1ccccc1Cl,> 11 µM (inactive)
7,O=C/C(=C\Nc1ccccn1)c1nc2cc(Cl)ccc2o1,> 11 µM (inactive)
8,Nc1c(NCCC2=CCCCC2)c(=O)[nH]c(=O)n1Cc1ccccc1,> 11 µM (inactive)
9,O=C(N/N=C/c1c(O)n(CCc2ccccc2)c(=O)[nH]c1=O)c1ccccc1O,> 11 µM (inactive)
10,CNC(=O)c1c(NC(=O)c2ccc(S(=O)(=O)N3CCCCC3C)cc2)sc2c1CCN(C)C2 (centres undefined),> 11 µM (inactive)
11,O=C1C([N+](=O)[O-])=C(O)c2cccc3cccc1c23,> 11 µM (inactive)
12,CC(=O)NC1=NC(=O)/C(=C/c2cc(C)n(-c3cccc(C(=O)O)c3)c2C)S1,> 11 µM (inactive)
13,CCCCN1C(=O)/C(=C2/Sc3ccccc3N2C)S/C1=N\c1ncn[nH]1,> 11 µM (inactive)
14,O=C1CNC(=S)N1CCc1ccc(O)c(O)c1,> 11 µM (inactive)
15,Cc1ccc2nc(-c3ccc(O)c(O)c3)cn2c1,> 11 µM (inactive)
16,C=CC1=C(C(=O)O)N2C(=O)[C@@H](NC(=O)/C(=N\O)c3csc(N)n3)[C@H]2SC1 (stereo in doubt),0.521 µM
17,O=c1[nH]c(=O)n(CCc2ccccc2)c(O)c1C=NCCCn1ccnc1,> 11 µM (inactive)
18,O=C(N/N=C\c1ccc(-c2ccc(Cl)c(Cl)c2)o1)C(=O)N1CCCC1,> 11 µM (inactive)
19,CCOC(=O)C1Nc2ccc(C)cc2C2C=CCC12 (centres undefined),> 11 µM (inactive)
20,CCc1ccc(/C=C2/SC(=S)N(CCC(=O)Nc3cccnc3)C2=O)cc1,> 11 µM (inactive)
21,Cc1nc(-c2ccc(O)c(O)c2)cs1,> 11 µM (inactive)
22,CCc1ccc(S(=O)(=O)Nc2cc(SCC(=O)O)c(O)c3ccccc23)cc1,> 11 µM (inactive)
23,COCc1cc(=O)n2[nH]c(-c3cccs3)cc2n1,> 11 µM (inactive)

row,Structure (SMILES),EC50
1,Cc1nc2c3ccccc3nc(NNC(=O)CCC(=O)N3CCCC(C)C3)n2n1 (centres undefined),> 11 µM (inactive)
2,Cc1cc2c3c(c1C)C1(C(=O)N3C(C)(C)CC2C)C(C#N)=C(N)OC2=C1C(=O)CC(C)(C)C2 (centres undefined),> 11 µM (inactive)
3,O=C1OCc2cc(-n3cccc3)ccc21,> 11 µM (inactive)
4,COC(=O)c1cc(-n2cccc2)ccc1N1CCOCC1,> 11 µM (inactive)
5,O=C(N=C1SC2CS(=O)(=O)CC2N1c1ccccc1)C1CC1 (centres undefined),> 11 µM (inactive)
6,CCn1c(/C=C/c2ccc([N+](=O)[O-])o2)nc2ccccc2c1=O,> 11 µM (inactive)
7,O=C1c2cccc3c(O)ccc(c23)C(=O)N1c1ccc(Cl)cc1,> 11 µM (inactive)
8,O=C(NCCN1CCOCC1)c1cccn2c(=O)c3c4c(sc3nc12)CCCC4,> 11 µM (inactive)
9,Cc1cccn2c(=O)c3cc(C(=O)NCC4CCCO4)c(=N)n(CCc4ccccc4)c3nc12 (centres undefined),> 11 µM (inactive)
10,COc1c(O)cccc1[C@@H](O)C1CCN(CCc2ccc(F)cc2)CC1,> 11 µM (inactive)
11,CN(C)c1ccc(N=Cc2nc(-c3ccccc3)oc2O)cc1,> 11 µM (inactive)
12,O=C(NNC(=O)c1ccc2ccccc2c1O)c1ccccc1Cl,> 11 µM (inactive)
13,Oc1ccc(-c2cn3ccccc3n2)cc1O,> 11 µM (inactive)
14,COc1ccc(-c2nnc(Nc3nc4c(OC)cccc4s3)o2)c(OC)c1,> 11 µM (inactive)
15,O=c1[nH]c2c(s1)C=Nc1ccccc1N2,> 11 µM (inactive)
16,Cc1cc(/C=C2\C(=O)NC(=O)N(Cc3ccco3)C2=O)c(C)n1-c1ccc(C(=O)O)cc1,> 11 µM (inactive)
17,CCN(CC)C(=O)Cn1cc(/C=C2\C(=O)NC(=O)N(c3ccccc3F)C2=O)c2ccccc21,> 11 µM (inactive)
18,CC(C)OC(=O)c1nn2c(C(F)(F)F)cc(-c3ccc(Br)o3)nc2c1Br,> 11 µM (inactive)
19,NC(=O)[C@@H]1CCCN1Cc1c(C(=O)N2CCc3ccccc3C2)nc2ccc(Cl)cn12,> 11 µM (inactive)
20,COC(=O)CCC(=O)OC1(C)C(=O)C2=CN(CCCOC(C)C)C(c3ccc(OC)cc3)=CC2=C(Br)C1=O (centres undefined),> 11 µM (inactive)
21,Cc1c(N=Cc2c(O)n(Cc3ccco3)c(=O)[nH]c2=O)c(=O)n(-c2ccccc2)n1C,> 11 µM (inactive)
22,CCn1c(SCC(=O)Nc2cc(C)on2)nnc1-c1ccc(OC)cc1,> 11 µM (inactive)
23,O=C1NC(=Nc2ccccc2Cl)S/C1=C\c1cc([N+](=O)[O-])ccc1O,> 11 µM (inactive)

row,Structure (SMILES),EC50
1,CC(=O)N1CCc2c(sc(NC(=O)C3CCCCC3)c2C(N)=O)C1,> 11 µM (inactive)
2,O=C(c1ccc(F)cc1)N1CCN(C2CCC(c3ccccc3)CC2)CC1 (centres undefined),> 11 µM (inactive)
3,COc1ccc(CCn2c(=N)c(C(=O)NC3CCCCC3)cc3c(=O)n4ccccc4nc32)cc1,> 11 µM (inactive)
4,Cc1ccc(/C=C(\C#N)C(=O)Nc2c(C)cccc2C)s1,> 11 µM (inactive)
5,CCOCCCn1c(=NC(C)=O)c(C#N)cc2c(=O)n3ccccc3nc21,> 11 µM (inactive)
6,COC(=O)c1ccc(-n2c(C)cc(C(=O)COC(=O)CNS(=O)(=O)c3ccc(C)cc3)c2C)cc1,> 11 µM (inactive)
7,CC(=O)c1cc(NC(=O)c2cccc(C(F)(F)F)c2)c(=O)oc1/C=C/N(C)C,> 11 µM (inactive)
8,COc1cccc2c1NC(C(=O)O)C1CC=CC21 (centres undefined),> 11 µM (inactive)
9,Cc1cc(C=C2C(=O)c3ccccc3C2=O)c(C)n1-c1ccc(C(=O)O)cc1,> 11 µM (inactive)
10,O=C(O)CCCCCn1c(SCC(=O)c2ccc(O)c(O)c2)nc2ccsc2c1=O,> 11 µM (inactive)
11,Cc1ccc(-c2ccc(CCC(=O)O)n2-c2ccc(C(=O)O)cc2)cc1,> 11 µM (inactive)
12,CCOC(=O)c1cc(C(=O)OCC)cc(-n2c(C)cc(C(=O)CN3CCOCC3)c2C)c1,> 11 µM (inactive)
13,COc1ccccc1/C=C1/SC(=S)N(CCC(=O)Nc2cccnc2)C1=O,> 11 µM (inactive)
14,CCCn1c(N)c(N(CCOC)C(=O)Cc2ccc(S(=O)(=O)N3CCOCC3)s2)c(=O)[nH]c1=O,> 11 µM (inactive)
15,O=C1c2cccc3c(O)ccc(c23)C(=O)N1Cc1ccccc1,> 11 µM (inactive)
16,Cc1cc(C(=O)O)ccc1-n1c(C)cc(/C=C(/C#N)C(=O)Nc2ccccc2)c1C,> 11 µM (inactive)
17,Oc1[nH]c2ccccc2c1N=Nc1ccccc1,> 11 µM (inactive)
18,CCOC(=O)N1CCN(CC(=O)c2ccc(O)cc2O)CC1,> 11 µM (inactive)
19,COc1cccc(OCCn2cc(C=O)c3ccccc32)c1,> 11 µM (inactive)
20,Cc1ccc[n+](-c2[nH]c(=O)sc2/C=N/NC(=O)c2ccccc2[O-])c1,> 11 µM (inactive)
21,Cn1cccc1/C=C1\C(=O)NC(=O)N(CCC2=CCCCC2)C1=O,> 11 µM (inactive)
22,CS(=O)(=O)Oc1ccc2c(c1)O/C(=C\C=C\c1ccccc1)C2=O,> 11 µM (inactive)
23,C=CCN1C(=O)/C(=C2/Sc3ccccc3N2CC)SC1=S,> 11 µM (inactive)
